Results published in ChEMBL document CHEMBL1697731, “Cheminformatics analysis of assertions mined from literature that describe drug-induced liver injury in different species” (Chem Res Toxicol, 2010).

How the values were obtained:
Hepatotoxicity [1] = assay: Literature-mined compound from Fourches et al multi-species drug-induced liver injury (DILI) dataset, effect in humans; details: human
Hepatotoxicity [2] = assay: Literature-mined compound from Fourches et al multi-species drug-induced liver injury (DILI) dataset, effect in rodents; details: rodentia
Hepatotoxicity [3] = assay: Literature-mined compound from Fourches et al multi-species drug-induced liver injury (DILI) dataset, effect in non-rodents

## CO[C@H]1/C=C/O[C@@]2(C)Oc3c(C)c(O)c4c(c3C2=O)C2=NC3(CCN(CC(C)C)CC3)NC2=C(NC(=O)/C(C)=C\C=C\[C@H](C)[C@H](O)[C@@H](C)[C@@H](O)[C@@H](C)[C@H](OC(C)=O)[C@@H]1C)C4=O [RIFABUTIN]
Hepatotoxicity [1]; Liver
  Hepatotoxicity: drug-induced liver injury reported
Hepatotoxicity [2]; Liver
  Hepatotoxicity: drug-induced liver injury reported
Hepatotoxicity [3]; Liver
  Hepatotoxicity: no drug-induced liver injury reported

## CO[C@H]1/C=C/O[C@@]2(C)Oc3c(C)c(O)c4c(O)c(c(/C=N/N5CCN(C)CC5)c(O)c4c3C2=O)NC(=O)/C(C)=C\C=C\[C@H](C)[C@H](O)[C@@H](C)[C@@H](O)[C@@H](C)[C@H](OC(C)=O)[C@@H]1C [RIFAMPIN]
Hepatotoxicity [1]
  Hepatotoxicity: drug-induced liver injury reported
Hepatotoxicity [2]
  Hepatotoxicity: drug-induced liver injury reported
Hepatotoxicity [3]
  Hepatotoxicity: drug-induced liver injury reported

## CO[C@H]1/C=C/O[C@@]2(C)Oc3c(C)c(O)c4c(O)c(cc(O)c4c3C2=O)NC(=O)/C(C)=C\C=C\[C@H](C)[C@H](O)[C@@H](C)[C@@H](O)[C@@H](C)[C@H](OC(C)=O)[C@@H]1C [RIFAMYCIN]
Hepatotoxicity [1]
  Hepatotoxicity: drug-induced liver injury reported
Hepatotoxicity [2]
  Hepatotoxicity: drug-induced liver injury reported
Hepatotoxicity [3]
  Hepatotoxicity: no drug-induced liver injury reported

## Nc1nc2ccc(OC(F)(F)F)cc2s1 [RILUZOLE]
Hepatotoxicity [1]
  Hepatotoxicity: drug-induced liver injury reported
Hepatotoxicity [2]
  Hepatotoxicity: no drug-induced liver injury reported
Hepatotoxicity [3]
  Hepatotoxicity: no drug-induced liver injury reported

## Cc1c(C(=O)NN2CCCCC2)nn(-c2ccc(Cl)cc2Cl)c1-c1ccc(Cl)cc1 [RIMONABANT]
Hepatotoxicity [1]
  Hepatotoxicity: no drug-induced liver injury reported
Hepatotoxicity [2]
  Hepatotoxicity: drug-induced liver injury reported
Hepatotoxicity [3]
  Hepatotoxicity: no drug-induced liver injury reported

## Cc1nc2n(c(=O)c1CCN1CCC(c3noc4cc(F)ccc34)CC1)CCCC2 [RISPERIDONE]
Hepatotoxicity [1]
  Hepatotoxicity: drug-induced liver injury reported
Hepatotoxicity [2]
  Hepatotoxicity: no drug-induced liver injury reported
Hepatotoxicity [3]
  Hepatotoxicity: no drug-induced liver injury reported

## CC(NCCc1ccc(O)cc1)C(O)c1ccc(O)cc1.Cl (configuration not stated) [RITODRINE HYDROCHLORIDE]
Hepatotoxicity [1]
  Hepatotoxicity: no drug-induced liver injury reported
Hepatotoxicity [2]
  Hepatotoxicity: no drug-induced liver injury reported
Hepatotoxicity [3]
  Hepatotoxicity: drug-induced liver injury reported

## CC(C)c1nc(CN(C)C(=O)N[C@H](C(=O)N[C@@H](Cc2ccccc2)C[C@H](O)[C@H](Cc2ccccc2)NC(=O)OCc2cncs2)C(C)C)cs1 [RITONAVIR]
Hepatotoxicity [1]
  Hepatotoxicity: drug-induced liver injury reported
Hepatotoxicity [2]
  Hepatotoxicity: drug-induced liver injury reported
Hepatotoxicity [3]
  Hepatotoxicity: no drug-induced liver injury reported

## CS(=O)(=O)c1ccc(C2=C(c3ccccc3)C(=O)OC2)cc1 [ROFECOXIB]
Hepatotoxicity [1]
  Hepatotoxicity: drug-induced liver injury reported
Hepatotoxicity [2]
  Hepatotoxicity: drug-induced liver injury reported
Hepatotoxicity [3]
  Hepatotoxicity: no drug-induced liver injury reported

## CN(C)[C@@H]1C(O)=C(C(=O)NCN2CCCC2)C(=O)[C@@]2(O)C(O)=C3C(=O)c4c(O)cccc4[C@@](C)(O)[C@H]3C[C@@H]12 [ROLITETRACYCLINE]
Hepatotoxicity [1]
  Hepatotoxicity: no drug-induced liver injury reported
Hepatotoxicity [2]
  Hepatotoxicity: drug-induced liver injury reported
Hepatotoxicity [3]
  Hepatotoxicity: no drug-induced liver injury reported

## O=C([O-])c1c(Cl)c(Cl)c(Cl)c(Cl)c1-c1c2cc(I)c(=O)c(I)c-2oc2c(I)c([O-])c(I)cc12.[Na+].[Na+] [ROSE BENGAL SODIUM]
Hepatotoxicity [1]
  Hepatotoxicity: no drug-induced liver injury reported
Hepatotoxicity [2]
  Hepatotoxicity: drug-induced liver injury reported
Hepatotoxicity [3]
  Hepatotoxicity: no drug-induced liver injury reported

## CN(CCOc1ccc(CC2SC(=O)NC2=O)cc1)c1ccccn1 (configuration not stated) [ROSIGLITAZONE]
Hepatotoxicity [1]
  Hepatotoxicity: drug-induced liver injury reported
Hepatotoxicity [2]
  Hepatotoxicity: drug-induced liver injury reported
Hepatotoxicity [3]
  Hepatotoxicity: no drug-induced liver injury reported

## CC(C)c1nc(N(C)S(C)(=O)=O)nc(-c2ccc(F)cc2)c1/C=C/[C@@H](O)C[C@@H](O)CC(=O)O [ROSUVASTATIN]
Hepatotoxicity [1]
  Hepatotoxicity: no drug-induced liver injury reported
Hepatotoxicity [2]
  Hepatotoxicity: drug-induced liver injury reported
Hepatotoxicity [3]
  Hepatotoxicity: no drug-induced liver injury reported

## CC[C@H]1OC(=O)[C@H](C)[C@@H](O[C@H]2C[C@@](C)(OC)[C@@H](O)[C@H](C)O2)[C@H](C)[C@@H](O[C@@H]2O[C@H](C)C[C@H](N(C)C)[C@H]2O)[C@](C)(O)C[C@@H](C)/C(=N\OCOCCOC)[C@H](C)[C@@H](O)[C@]1(C)O [ROXITHROMYCIN]
Hepatotoxicity [1]
  Hepatotoxicity: drug-induced liver injury reported
Hepatotoxicity [2]
  Hepatotoxicity: drug-induced liver injury reported
Hepatotoxicity [3]
  Hepatotoxicity: no drug-induced liver injury reported

## CC[C@@]1(O)C(=O)OCc2c1cc1n(c2=O)Cc2cc3c([N+](=O)[O-])cccc3nc2-1 [RUBITECAN]
Hepatotoxicity [1]
  Hepatotoxicity: drug-induced liver injury reported
Hepatotoxicity [2]
  Hepatotoxicity: no drug-induced liver injury reported
Hepatotoxicity [3]
  Hepatotoxicity: no drug-induced liver injury reported

## NC(=O)c1ccccc1O [SALICYLAMIDE]
Hepatotoxicity [1]
  Hepatotoxicity: drug-induced liver injury reported
Hepatotoxicity [2]
  Hepatotoxicity: drug-induced liver injury reported
Hepatotoxicity [3]
  Hepatotoxicity: no drug-induced liver injury reported

## O=C(O)c1ccccc1O [SALICYLIC ACID]
Hepatotoxicity [1]; Liver
  Hepatotoxicity: no drug-induced liver injury reported
Hepatotoxicity [2]; Liver
  Hepatotoxicity: drug-induced liver injury reported
Hepatotoxicity [3]; Liver
  Hepatotoxicity: no drug-induced liver injury reported

## C#CCN(C)[C@H](C)Cc1ccccc1 [SELEGILINE]
Hepatotoxicity [1]
  Hepatotoxicity: drug-induced liver injury reported
Hepatotoxicity [2]
  Hepatotoxicity: no drug-induced liver injury reported
Hepatotoxicity [3]
  Hepatotoxicity: no drug-induced liver injury reported

## C[Se]CC[C@H](N)C(=O)O [SELENOMETHIONINE]
Hepatotoxicity [1]
  Hepatotoxicity: no drug-induced liver injury reported
Hepatotoxicity [2]
  Hepatotoxicity: drug-induced liver injury reported
Hepatotoxicity [3]
  Hepatotoxicity: drug-induced liver injury reported

## Cn1cnc2c(F)c(Nc3ccc(Br)cc3Cl)c(C(=O)NOCCO)cc21 [SELUMETINIB]
Hepatotoxicity [1]
  Hepatotoxicity: no drug-induced liver injury reported
Hepatotoxicity [2]
  Hepatotoxicity: drug-induced liver injury reported
Hepatotoxicity [3]
  Hepatotoxicity: no drug-induced liver injury reported

## Cc1cc(C)c(/C=C2\C(=O)Nc3ccccc32)[nH]1 [SEMAXANIB]
Hepatotoxicity [1]
  Hepatotoxicity: drug-induced liver injury reported
Hepatotoxicity [2]
  Hepatotoxicity: drug-induced liver injury reported
Hepatotoxicity [3]
  Hepatotoxicity: no drug-induced liver injury reported

## C=C1/C(=C\C=C2/CCC[C@]3(C)[C@@H]([C@H](C)/C=C/C=C/C(O)(CC)CC)CC[C@@H]23)C[C@@H](O)C[C@@H]1O [SEOCALCITOL]
Hepatotoxicity [1]
  Hepatotoxicity: drug-induced liver injury reported
Hepatotoxicity [2]
  Hepatotoxicity: no drug-induced liver injury reported
Hepatotoxicity [3]
  Hepatotoxicity: no drug-induced liver injury reported

## CN[C@H]1CC[C@@H](c2ccc(Cl)c(Cl)c2)c2ccccc21 [SERTRALINE]
Hepatotoxicity [1]; Liver
  Hepatotoxicity: drug-induced liver injury reported
Hepatotoxicity [2]; Liver
  Hepatotoxicity: drug-induced liver injury reported
Hepatotoxicity [3]; Liver
  Hepatotoxicity: no drug-induced liver injury reported

## FCOC(C(F)(F)F)C(F)(F)F [SEVOFLURANE]
Hepatotoxicity [1]
  Hepatotoxicity: drug-induced liver injury reported
Hepatotoxicity [2]
  Hepatotoxicity: drug-induced liver injury reported
Hepatotoxicity [3]
  Hepatotoxicity: no drug-induced liver injury reported

## CC(C)CC(N(C)C)C1(c2ccc(Cl)cc2)CCC1 (configuration not stated) [SIBUTRAMINE]
Hepatotoxicity [1]
  Hepatotoxicity: drug-induced liver injury reported
Hepatotoxicity [2]
  Hepatotoxicity: no drug-induced liver injury reported
Hepatotoxicity [3]
  Hepatotoxicity: no drug-induced liver injury reported

## COc1cc(C2Oc3cc([C@H]4Oc5cc(O)cc(O)c5C(=O)[C@@H]4O)ccc3OC2CO)ccc1O (some centres not stated) [SILIBININ]
Hepatotoxicity [1]
  Hepatotoxicity: drug-induced liver injury reported
Hepatotoxicity [2]
  Hepatotoxicity: drug-induced liver injury reported
Hepatotoxicity [3]
  Hepatotoxicity: no drug-induced liver injury reported

## CO[C@H]1C[C@@H]2CC[C@@H](C)[C@@](O)(O2)C(=O)C(=O)N2CCCC[C@H]2C(=O)O[C@H]([C@H](C)C[C@@H]2CC[C@@H](O)[C@H](OC)C2)CC(=O)[C@H](C)/C=C(\C)[C@@H](O)[C@@H](OC)C(=O)[C@H](C)C[C@H](C)/C=C/C=C/C=C/1C [SIROLIMUS]
Hepatotoxicity [1]
  Hepatotoxicity: drug-induced liver injury reported
Hepatotoxicity [2]
  Hepatotoxicity: drug-induced liver injury reported
Hepatotoxicity [3]
  Hepatotoxicity: no drug-induced liver injury reported

## Cc1cc2c(cc1CC(=O)c1sccc1S(=O)(=O)Nc1onc(C)c1Cl)OCO2 [SITAXENTAN]
Hepatotoxicity [1]
  Hepatotoxicity: drug-induced liver injury reported
Hepatotoxicity [2]
  Hepatotoxicity: no drug-induced liver injury reported
Hepatotoxicity [3]
  Hepatotoxicity: no drug-induced liver injury reported

## CC(=O)[O-].[Na+] [SODIUM ACETATE]
Hepatotoxicity [1]; Liver
  Hepatotoxicity: no drug-induced liver injury reported
Hepatotoxicity [2]; Liver
  Hepatotoxicity: drug-induced liver injury reported
Hepatotoxicity [3]; Liver
  Hepatotoxicity: no drug-induced liver injury reported

## O=C([O-])c1ccccc1.[Na+] [SODIUM BENZOATE]
Hepatotoxicity [1]
  Hepatotoxicity: no drug-induced liver injury reported
Hepatotoxicity [2]
  Hepatotoxicity: drug-induced liver injury reported
Hepatotoxicity [3]
  Hepatotoxicity: no drug-induced liver injury reported

## O=C([O-])O.[Na+] [SODIUM BICARBONATE]
Hepatotoxicity [1]; Liver
  Hepatotoxicity: no drug-induced liver injury reported
Hepatotoxicity [2]; Liver
  Hepatotoxicity: drug-induced liver injury reported
Hepatotoxicity [3]; Liver
  Hepatotoxicity: drug-induced liver injury reported

## O=C([O-])CCCc1ccccc1.[Na+] [SODIUM PHENYLBUTYRATE]
Hepatotoxicity [1]
  Hepatotoxicity: drug-induced liver injury reported
Hepatotoxicity [2]
  Hepatotoxicity: no drug-induced liver injury reported
Hepatotoxicity [3]
  Hepatotoxicity: no drug-induced liver injury reported

## O=S(=O)([O-])Oc1ccc(C(c2ccc(OS(=O)(=O)[O-])cc2)c2ccccn2)cc1.[Na+].[Na+] [SODIUM PICOSULFATE]
Hepatotoxicity [1]
  Hepatotoxicity: drug-induced liver injury reported
Hepatotoxicity [2]
  Hepatotoxicity: no drug-induced liver injury reported
Hepatotoxicity [3]
  Hepatotoxicity: no drug-induced liver injury reported

## CCC(=O)[O-].[Na+] [SODIUM PROPIONATE]
Hepatotoxicity [1]
  Hepatotoxicity: no drug-induced liver injury reported
Hepatotoxicity [2]
  Hepatotoxicity: drug-induced liver injury reported
Hepatotoxicity [3]
  Hepatotoxicity: no drug-induced liver injury reported
